Consider nine compounds from patent US20240239794A1, “PKC-Theta Modulators” (Exscientia AI Limited, priority 2021, published 2024).

The test system of test [1] is IL-2 secretion by human effector memory T cells (TEM). The test is described as follows: Effector memory T cells IL-2 release assay. It counts as cell-based. The settings on record: T-cell, human CD4+ TEM cells, CD3/CD28 bead stimulation, 24 h. In outline: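 Human CD4+ effector memory T cells (negatively sorted from donor PBMC), 5,000 per well, stimulated with CD3/CD28 beads and 10 semi-log compound doses for 24 h at 37° C, 0.1% DMSO. Supernatant IL-2 measured by HTRF; IC50 from 4-parameter logistic fit; viability checked by flow cytometry.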

For test [2], the target named is Recombinant human PKC-delta (His-tagged 345-676) (Homo sapiens (Human), UniProt Q05655). As to the kind of experiment: PKC-delta inhibition assay (HTRF KinEASE kit), PKC-theta/PKC-delta selectivity. The settings on record: ratio; for PKC-theta/PKC-delta selectivity: PKC-theta over PKC-delta, HTRF assays; for PKC-theta/PKC-delta selectivity (binned): binned A to G. It counts as biochemical. In outline: (§1)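 HTRF KinEASE kinase assay, buffer supplemented with 10 mM MgCl2, 1 mM DTT, 0.1% Tween 20; enzyme at 10 ng/ml preincubated 30 min on ice with compound. PKC-theta: 525 nM STK substrate, 6.5 μM ATP, 30 min at 25° C; PKC-delta: 243 nM substrate, 5.7 μM ATP, 20 min. IC50 from 4-parameter fit of 10-dose series.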
(In TR-FRET formats the signal depends on donor and acceptor labels being close together.)

Test [3] has as its target Recombinant human PKC-theta (His-tagged 362-706) (Homo sapiens (Human), UniProt Q04759). The test is described as follows: PKC-theta inhibition assay (HTRF KinEASE kit). In kind it is biochemical. The settings on record: ATP 6.5 μM. The essentials: as §1
The mark [4] stands for this setting: binned A to G, read-out: PKC-theta IL2 pIC50 (binned) (converted).
Where [5] appears, read: read-out: PKC-theta IL2 pIC50 (converted).
Setting [6] is: binned A to H, read-out: PKC-theta HTRF pIC50 (binned) (converted).
The mark [7] stands for this setting: read-out: PKC-theta HTRF pIC50 (converted).

Where two headings read alike, the source gives them in different places. Some results are limits rather than exact numbers.

Sequence of Recombinant human PKC-theta (His-tagged 362-706) (Q04759 362-706): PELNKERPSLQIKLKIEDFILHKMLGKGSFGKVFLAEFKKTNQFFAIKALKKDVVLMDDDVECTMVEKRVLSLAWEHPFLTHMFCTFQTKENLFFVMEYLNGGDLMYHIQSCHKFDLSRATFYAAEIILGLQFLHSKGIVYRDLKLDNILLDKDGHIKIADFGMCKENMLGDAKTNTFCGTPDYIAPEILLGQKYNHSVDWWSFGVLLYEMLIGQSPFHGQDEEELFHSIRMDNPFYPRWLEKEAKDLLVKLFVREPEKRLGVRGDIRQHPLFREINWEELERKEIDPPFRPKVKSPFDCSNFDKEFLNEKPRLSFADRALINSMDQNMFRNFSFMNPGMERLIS
Sequence of Recombinant human PKC-delta (His-tagged 345-676) (Q05655 345-676): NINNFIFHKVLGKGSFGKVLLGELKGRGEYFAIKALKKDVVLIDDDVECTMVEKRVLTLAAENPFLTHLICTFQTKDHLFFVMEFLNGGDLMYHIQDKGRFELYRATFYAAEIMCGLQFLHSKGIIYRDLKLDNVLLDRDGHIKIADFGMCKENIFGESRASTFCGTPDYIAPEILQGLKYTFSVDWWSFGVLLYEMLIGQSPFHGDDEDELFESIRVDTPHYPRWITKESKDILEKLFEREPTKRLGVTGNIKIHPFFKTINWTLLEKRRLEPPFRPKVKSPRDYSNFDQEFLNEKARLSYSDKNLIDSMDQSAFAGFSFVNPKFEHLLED

On to `CC[C@]1(C)C(=O)Nc2nccc(-c3nn([C@H]4CCNC4)c4ccccc34)c21` (single isomer, unassigned) [Example 65], for which the IC50 in test [1] (setting [4]) is 316 to 1000 nM; in test [1] (setting [5]), 398 nM; in test [3] (setting [6]), 31.6 to 100 nM; in test [3] (setting [7]), 50.1 nM. The PKC-theta/PKC-delta selectivity in test [2] amounted to 28. In test [2], the “PKC-theta/PKC-delta selectivity (binned)” value was “C (C means a ratio of between 20 and 30)”.

On to `CC1(C)C(=O)Nc2nccc(-c3nn([C@@H]4CCNC[C@@H]4F)c4ccccc34)c21` [Example 37], for which the IC50 was 10 to 31.6 nM in test [1] (setting [4]), 25.1 nM in test [1] (setting [5]) and 1 to 3.16 nM in test [3] (setting [6]). Also, in test [2], the PKC-theta/PKC-delta selectivity amounted to 19. Moreover, in test [2], the “PKC-theta/PKC-delta selectivity (binned)” value was “D (D means a ratio of between 10 and 20)”. The “PKC-theta HTRF pIC50” value in test [3] is reported as 8.6.

Take `CC1(O)C(=O)Nc2nccc(-c3nn([C@H]4CCNC[C@@H]4F)c4ccccc34)c21` (stereo partly drawn) [Example 35]: the IC50 in test [1] (setting [4]) is 31.6 to 100 nM; in test [1] (setting [5]), 100 nM; in test [3] (setting [6]), 3.16 to 10 nM. Further, the PKC-theta/PKC-delta selectivity in test [2] was 11. Further, the “PKC-theta/PKC-delta selectivity (binned)” value in test [2] is “D (D means a ratio of between 10 and 20)”. The “PKC-theta HTRF pIC50” value in test [3] is recorded as 8.5.

Turning to `CC1(C)C(=O)Nc2nccc(-c3nn([C@@H]4CCNC4)c4ccccc34)c21` [Example 15], the IC50 is 31.6 to 100 nM in test [1] (setting [4]), 39.8 nM in test [1] (setting [5]) and 1 to 3.16 nM in test [3] (setting [6]). The PKC-theta/PKC-delta selectivity in test [2] is on record as 14. Besides, in test [2], the “PKC-theta/PKC-delta selectivity (binned)” value is “D (D means a ratio of between 10 and 20)”. In test [3], the “PKC-theta HTRF pIC50” value came out at 8.6.

For `C[C@@]1(O)C(=O)Nc2nccc(-c3nn(CC4(F)CCNCC4)c4ccccc34)c21` (single isomer, unassigned) [Example 47], the IC50 in test [1] (setting [4]) is 10 to 31.6 nM; in test [1] (setting [5]), 25.1 nM; in test [3] (setting [6]) it was ≤ 1 nM; in test [3] (setting [7]), 0.631 nM. In test [2], the PKC-theta/PKC-delta selectivity is given as 12. Besides, the “PKC-theta/PKC-delta selectivity (binned)” value in test [2] was “D (D means a ratio of between 10 and 20)”.

Turning to `CNC1(C)C(=O)Nc2nccc(-c3nn(C4(CC#N)CCC4)c4ccccc34)c21` (stereo not drawn) [Example 62], the values for the IC50 in test [1] (setting [4]), in test [1] (setting [5]) and in test [3] (setting [6]) were 1 to 3.16 nM, 1.58 nM and ≤ 1 nM, respectively. The PKC-theta/PKC-delta selectivity in test [2] was 3. Moreover, in test [2], the “PKC-theta/PKC-delta selectivity (binned)” value is “F (F means a ratio of between 1 and 5)”. In test [3], the “PKC-theta HTRF pIC50” value is 9.5.

With `CC1(C)C(=O)Nc2nccc(-c3nn(C4CCNCC4)c4cc(F)ccc34)c21` [Example 112], the IC50 was 31.6 to 100 nM in test [1] (setting [4]), 63.1 nM in test [1] (setting [5]) and 1 to 3.16 nM in test [3] (setting [6]). Further, the PKC-theta/PKC-delta selectivity in test [2] came out at 22. The “PKC-theta/PKC-delta selectivity (binned)” value in test [2] was “C (C means a ratio of between 20 and 30)”. Besides, the “PKC-theta HTRF pIC50” value in test [3] came to 8.5.

As for `C[C@@]1(O)C(=O)Nc2nccc(-c3nn([C@@H]4CCNC[C@@H]4F)c4ccccc34)c21` (single isomer, unassigned) [Example 50], the IC50 in test [1] (setting [4]) was 10 to 31.6 nM; in test [1] (setting [5]), 20 nM; in test [3] (setting [6]), ≤ 1 nM; in test [3] (setting [7]), 0.794 nM. Further, in test [2], the PKC-theta/PKC-delta selectivity was 11. The “PKC-theta/PKC-delta selectivity (binned)” value in test [2] was “D (D means a ratio of between 10 and 20)”.

`C[C@@]1(O)C(=O)Nc2nccc(-c3nn(C4(CC#N)CNC4)c4ccccc34)c21` (single isomer, unassigned) [Example 49]: the IC50 is 100 to 316 nM in test [1] (setting [4]), 316 nM in test [1] (setting [5]), 3.16 to 10 nM in test [3] (setting [6]) and 6.31 nM in test [3] (setting [7]). Further, in test [2], the PKC-theta/PKC-delta selectivity amounted to 3. Moreover, the “PKC-theta/PKC-delta selectivity (binned)” value in test [2] was “F (F means a ratio of between 1 and 5)”.
